The numbers were not newly measured in patent US8663696B2, “Film delivery system for tetrahydrolipstatin” (MonoSol Rx, LLC, priority 2007, dated 2014), which cites them from elsewhere.

In one data set the test system is lipase. The settings on record: background statement on the drug.
For data set [1] the following is noted: natural crystalline state.

As for `CCCCCCCCCCC[C@@H](C[C@@H]1OC(=O)[C@H]1CCCCCC)OC(=O)[C@H](CC(C)C)NC=O` [Tetrahydrolipstatin, (2S,3S,5S)-5-[(S)-2-formamido-4-methyl-valeranyloxy]-2-hexyl-3-hexadecanoic acid lactone], in the data set on lipase, the “absorption of dietary fat blocked” value is given as “approximately 30%”. Also, the water solubility result in data set [1] is “very water-insoluble”.
